row,SMILES,melting point
1,O=C(Oc1c(F)c(F)c(F)c(F)c1F)c1ccnc(N2CCSCC2)c1,99 to 100 °C
2,O=C(O)C=C(F)C(F)(F)C(F)(F)C(F)(F)C(F)(F)C(F)(F)C(F)(F)C(F)(F)F,105 °C
3,CC12CCC3C(CCC4CC5(CCC43C)OCCO5)C1CCC2=O (stereo unspecified),153 °C
4,O=c1ccn(C2CCC(CO)O2)c(=O)[nH]1 (stereo unspecified),128 °C
5,Nc1ncc(Br)cn1,239 to 244 °C
6,CCOC(=O)c1ccc(Br)cc1,18 °C
7,S=C=Nc1ccc2nsnc2c1,96 to 97 °C
8,COc1cc(O)c2c(c1)OC(c1ccc(O)cc1)CC2=O (stereo unspecified),152 °C
9,CN1CCC23c4c5ccc(O)c4OC2C(O)CCC3C1C5 (stereo unspecified),157 °C
10,CC(C)(C)c1cc2c(O)c(c1)Cc1cc(C(C)(C)C)cc(c1O)Cc1cc(C(C)(C)C)cc(c1O)Cc1cc(C(C)(C)C)cc(c1O)Cc1cc(C(C)(C)C)cc(c1O)Cc1cc(C(C)(C)C)cc(c1O)C2,300 °C
11,O=[N+]([O-])c1c(Cl)ccc(O)c1Cl,87 °C
12,C#CC1(O)C=CC2C3CCC4=CC(=O)CCC4C3CCC21CC (stereo unspecified),198 °C
13,CCC(Nc1ncnc(C)c1Cl)c1ccc(OC(F)F)cc1 (stereo unspecified),47.8 °C
14,O=C(Cl)c1ccccc1Cl,-4 °C
15,CCCC(=O)Nc1ccc(O)cc1,140 °C
16,Cc1cc(C)c([N+](=O)[O-])c(F)c1,56 °C
17,O=C(O)c1cncc(C(=O)O)c1,324 °C
18,COC(=O)C1(C)CCC(C(=O)O)C1(C)C (stereo unspecified),74 to 78 °C
19,Cn1nc(CC#N)c2c(N)ncnc21,135 to 138 °C
20,CC(=O)NCO,55 to 56 °C
21,Cc1cc(C)c(CSCc2c(C)cc(C)cc2C)c(C)c1,145 to 146 °C

row,SMILES,melting point
1,CCN(CC)CCOc1ccc(C(O)(Cc2ccc(Cl)cc2)c2ccc(C)cc2)cc1 (stereo unspecified),103 °C
2,CCOC(=O)c1cc2c(s1)Sc1[nH]c(C(=O)OCC)c(N)c1C2c1ccccc1 (stereo unspecified),133 °C
3,FC(Cl)(Cl)CCl,-140 °C
4,C/C(=N\O)C1CC2(C)CCC1C2(C)C (stereo unspecified),95.5 °C
5,Cc1nc(C(=O)O)cs1,148 to 149 °C
6,CS(=O)(=O)CC#N,84 °C
7,CN[C@@H](Cc1c[nH]c2ccccc12)C(=O)O,295 °C
8,COC(=O)c1cc(N)cc(O)c1,124 to 126 °C
9,CC1CCC(C(C)C)C(OC(=O)C#Cc2ccccc2)C1 (stereo unspecified),64 °C
10,CCCC(C)Cl (stereo unspecified),-80 °C
11,Cc1ccc(S(=O)(=O)N2CCCN(S(=O)(=O)c3ccc(C)cc3)CCN(S(=O)(=O)c3ccc(C)cc3)CCC2)cc1,238 °C
12,Cn1ncc2c(=N)n(N)cnc21,185 °C
13,NC(=NO)c1cccc(Cl)c1Cl,139 to 140 °C
14,C(COCCOCC1CO1)OCCOCC1CO1 (stereo unspecified),-13 °C
15,CC1(/C(=N\Nc2ccc([N+](=O)[O-])cc2[N+](=O)[O-])C(=O)O)CCC(C(=O)O)C1(C)C (stereo unspecified),191 °C
16,CC(C)(S)C(=O)O,47 °C
17,CC1(N)CCC(C(C)(C)N)CC1 (stereo unspecified),-45 °C
18,FC(F)(F)c1ccc(-n2cc[nH]c2=S)cc1,194 to 196 °C
19,O=C1C(=C2c3ccccc3C(=O)C2c2cc(Cl)c([N+](=O)[O-])cc2[N+](=O)[O-])C(=O)c2ccccc21 (stereo unspecified),218 °C
20,Oc1cccc(N2CCOCC2)c1,136 to 138 °C
21,CC(O)CCc1ccc2c(c1)NC(C)CC2 (stereo unspecified),79 °C

row,SMILES,melting point
1,COC(=O)C1CCC(C)(C(O)(c2ccccc2)c2ccccc2)OC1(C)C (stereo unspecified),91 °C
2,O=C(O)c1cncc(-c2ccco2)c1,261 to 263 °C
3,Cc1nc(-c2ccc(Cl)cc2)sc1C(=O)O,251 °C
4,CCCCOc1ccc(/C=N/c2ccc(C(C)=O)cc2)cc1,80 to 128 °C
5,CCCCCCCCCCCCN1CC(C(=O)O)CC1=O (stereo unspecified),39 °C
6,O=C(O)CCCCCCCC(O)C(O)CCCCCCO (stereo unspecified),100 °C
7,N#Cc1cccc(N2CCCC2)c1,84 to 85 °C
8,CC(C)(C)P(=O)(O)O,188 to 192 °C
9,CC1CC=CC2C3OC3(C)C(C)C3C(Cc4ccccc4)NC(=O)C23OC(=O)OC=CC(C)(O)C1=O (stereo unspecified),206 °C
10,N#CC1CC2CCC1C2 (stereo unspecified),44 °C
11,O=C(Cl)c1cccc(C(Cl)Cl)c1,57 to 63 °C
12,Clc1cncc(Cl)c1N1CCNCC1,77 to 80 °C
13,CC(=O)C1(O)C(C)CC2C3CC=C4CC(O)CCC4(C)C3CCC21C (stereo unspecified),224 to 230 °C
14,CC(C)OC(=O)c1cc(C(=O)OC(C)C)cc([N+](=O)[O-])c1,65 °C
15,CC=NNc1ccc([N+](=O)[O-])cc1[N+](=O)[O-],166 °C
16,O=C(O)C(F)F,-1 °C
17,CCOC(=O)c1nn(-c2ccc(C)cc2)c(C)c1C(=O)C1=NOC2C(=O)N(c3cc(Cl)ccc3Cl)C(=O)C12 (stereo unspecified),225 °C
18,C[C@@H]1N[C@H](C(=O)O)CC2c3ccccc3NC21 (stereo partly specified),286 °C
19,C[Si](C)(C)OS(=O)(=O)O[Si](C)(C)C,47 to 50 °C
20,COc1ccc(Cc2c(N)nn3c(C)cc(C)nc23)cc1,159 to 160 °C
21,O=c1c2cc(F)ccc2nc(-n2cncn2)n1-c1ccc(Cl)cc1Cl,192 °C

row,SMILES,melting point
1,CSc1ccc(C(=O)O)s1,103 to 105 °C
2,COc1ccc(C)cc1,-32 °C
3,c1cc2[nH]cnc2cn1,172 °C
4,CCCCCCCCCCCC[N+]1=C(C=Cc2cc([N+](=O)[O-])cc([N+](=O)[O-])c2[O-])C(C)(C)c2ccccc21,138 °C
5,COc1ccc(C(C)(C)c2ccc(OC)cc2)cc1,54 to 59 °C
6,CC[C@H](C)[C@@H](N)C(=O)O,285 °C
7,Cc1nc(C(F)(F)F)c(C(=O)Nc2c(Br)cc(OC(F)(F)F)cc2Br)s1,178 °C
8,CC(=O)N[C@H]1[C@H](OC(C)=O)O[C@H](COC(C)=O)[C@@H](OC(C)=O)[C@@H]1OC(C)=O,186 to 189 °C
9,C1=CCNCC1,-48 °C
10,Cc1c(C)c2c(c(C)c1O)CCC(C)(CCCC(C)CCCC(C)CCCC(C)C)O2 (stereo unspecified),2.5 to 3.5 °C
11,C[C@]12CC[C@H]3O[C@H]3[C@@H]1CC[C@@H]1[C@@H]2CC[C@]2(C)C(=O)CC[C@@H]12,158 °C
12,NC(=S)NN=C1C2CCCC1C1(O)CCCCC1C2 (stereo unspecified),184 °C
13,O=C(O)C1(c2ccc(Cl)cc2Cl)CC1,140 to 147 °C
14,N#Cc1ccc(N2N=N2)cc1,70 °C
15,C=C(C)C1CCC2(C)CCC3(C)C(CCC4C5(C)CCC(O)C(C)(C)C5CCC43C)C12 (stereo unspecified),216 °C
16,Nc1ccccc1NC(C(=O)Nc1ccccc1)(c1ccccc1)c1ccccc1,160 °C
17,Nc1cc(O)nc(N)n1,285 to 286 °C
18,Cn1ccc(-c2ccc(N=C=O)cc2)n1,67 to 70 °C
19,O=C1CCCCC1,-26 °C

# Further lines, results first:
row,melting point,SMILES
1,118 °C,COc1ccc(N/N=C(/C(=O)c2cccc3ccccc23)S(=O)(=O)c2ccccc2)cc1
2,105 to 107 °C,COC(=O)c1cccc(Cn2nc(C)c(Br)c2C)c1
3,119 to 120 °C,O=C(NCCCCCCO)OCC1c2ccccc2-c2ccccc21
4,115 to 117 °C,CSc1ncnc2c1cnn2-c1ccccc1
5,162 to 168 °C,O=Cc1coc2ccc(Cl)cc2c1=O
6,31 °C,O=Cc1ccc(F)c(Br)c1
7,186 to 188 °C,Cc1cc(C)n(N=Cc2ccc(F)cc2)c(=O)c1C#N
8,-40 °C,c1ccc(Sc2ccccc2)cc1
9,108 °C,CC(=O)c1ccc(-c2cccc([N+](=O)[O-])c2)cc1
10,19.5 °C,Fc1ccc(OCC2CO2)cc1 (stereo unspecified)
11,125 to 126 °C,O=Cc1ccc(CN2C(=O)c3ccccc3C2=O)o1
12,-5 °C,CC1Cc2ccccc2CC1C (stereo unspecified)
13,165 °C,N=c1oc2ccccc2cc1CSN
14,60 to 65 °C,Brc1nc(Br)n(Cc2ccccc2)n1
15,12 °C,CCCC(=O)c1ccccc1
16,105 °C,CC(=O)CC(=O)Nc1ccccc1C
17,128 to 134 °C,"O=C1CC2C(CC(OC(=O)c3ccc(-c4ccccc4)cc3)C2CO)O1 (single isomer, unassigned; (-))"
18,261 to 263 °C,Cn1c(CN)nc2ccccc21
19,13 °C,C=Cc1ccccc1[N+](=O)[O-]
20,184 °C,CC(C)(C)N(NC(=O)c1ccccc1)C(=O)c1ccccc1F

row,melting point,SMILES
1,77 to 82 °C,O=[N+]([O-])c1ccc(Cl)cc1CO
2,98 to 100 °C,O=Cc1cccc(-c2ncccn2)c1
3,169 to 171 °C,O=C(O)c1cccc2cccc(Br)c12
4,120 °C,CN(C)CCC(O)(c1ccccc1)c1ccccc1Cl (stereo unspecified)
5,140 °C,Clc1ncccc1-c1cccc(Br)n1
6,59 to 61 °C,C=C1N(C(C)=O)c2ccccc2C1(C)C(=O)OC (stereo unspecified)
7,111 to 113 °C,C=CCn1c(=O)oc(=O)c2ccccc21
8,240 to 242 °C,Cc1cc(C(=O)O)c2ccccc2n1
9,102 to 104 °C,Cc1c(C#N)[nH]c2ccccc12
10,92 to 93 °C,CCOC(=O)c1c(-c2ccccc2)csc1NC(=O)C(Cl)Cl
11,110 °C,O=C(O)Cc1csc2ccccc12
12,221 °C,CCOC(=O)C1=NN(c2ccccc2)C(=O)C1C(Cl)C1C(=O)N(c2ccccc2)N=C1C(=O)OCC (stereo unspecified)
13,214 to 216 °C,CC1=C(C(=O)OCc2ccccc2)C(c2ccc(O)c(O)c2)NC(=O)N1 (stereo unspecified)
14,263 °C,O=C1CC(c2cccc(C3=NN(c4ccccc4)C(=O)C3)c2)=NN1c1ccccc1
15,111 °C,Clc1nncc2ccccc12
16,110 °C,CC(C(=O)O)c1ccc(-c2ccccc2)c(F)c1 (stereo unspecified)
17,108 °C,NC(=C(N)c1ccccc1)c1ccccc1
18,174 °C,Cc1ccc(NC(=O)c2cccc3ccccc23)cc1
19,140 °C,O=C(Cc1ccccc1)NC(CO)c1ccccc1 (stereo unspecified)

# — a melting point compilation (Tetko et al.)
